Results as given in PMC12247511, “Evolutionary diversification of acyl-CoA synthetases underpins hydrophobic barrier formation across diverse tomato tissues and beyond” (Horticulture Research, 2025).
Values belong to the molecule of their own block, whether it stands above or below them.

Key:
MeLACS = system: T1, MeLACS; experiment: coupled myokinase/pyruvate kinase/lactate dehydrogenase assay, NADH at […] nm; type: biochemical, Mesotaenium endlicherianum; conditions: 0.1 M Tris-HCl pH 7.5, 30 °C, 5 mM ATP, 0.5 mM CoA, 10 mM MgCl2, 2 mM DTT; fatty acid 0-1 mM from stock in 5% Triton X-100
T1 construct: full-length ORF, His-tagged (pET28b, BamHI/SalI), E. coli Rosetta 2 (DE3), Ni-NTA

SlLACS2 = target: T2, SlLACS2 (Solanum lycopersicum, UniProt Z9EVN9B4R8); experiment: as above; type: biochemical; conditions: 0.1 M Tris-HCl pH 7.5, 30 °C, 5 mM ATP, 0.5 mM CoA, 10 mM MgCl2, 2 mM DTT; fatty acid 0-1 mM from stock in 5% Triton X-100
T2 construct: full-length ORF, His-tagged (pET28b, BamHI/SalI), E. coli Rosetta 2 (DE3), Ni-NTA
T2 sequence (Z9EVN9B4R8 1-659): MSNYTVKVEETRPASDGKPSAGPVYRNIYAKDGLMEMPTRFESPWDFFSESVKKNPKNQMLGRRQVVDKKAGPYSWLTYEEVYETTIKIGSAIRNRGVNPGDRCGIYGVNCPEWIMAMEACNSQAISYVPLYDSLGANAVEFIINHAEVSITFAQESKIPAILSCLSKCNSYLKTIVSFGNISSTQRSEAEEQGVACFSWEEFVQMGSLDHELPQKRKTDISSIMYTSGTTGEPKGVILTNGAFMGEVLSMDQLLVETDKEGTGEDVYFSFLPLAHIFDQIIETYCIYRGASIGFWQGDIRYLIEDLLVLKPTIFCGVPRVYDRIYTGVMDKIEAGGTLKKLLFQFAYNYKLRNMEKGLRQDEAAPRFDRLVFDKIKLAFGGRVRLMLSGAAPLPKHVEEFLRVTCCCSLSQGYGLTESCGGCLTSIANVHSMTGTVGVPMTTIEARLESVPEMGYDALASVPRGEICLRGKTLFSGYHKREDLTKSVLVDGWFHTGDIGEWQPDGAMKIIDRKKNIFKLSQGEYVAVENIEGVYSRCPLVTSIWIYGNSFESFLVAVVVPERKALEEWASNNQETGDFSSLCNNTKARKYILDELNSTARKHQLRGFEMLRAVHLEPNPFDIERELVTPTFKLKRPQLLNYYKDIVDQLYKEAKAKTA

MvLACS = system: T3, MvLACS; experiment: as above; type: biochemical, Mesostigma viride; conditions: 0.1 M Tris-HCl pH 7.5, 30 °C, 5 mM ATP, 0.5 mM CoA, 10 mM MgCl2, 2 mM DTT; fatty acid 0-1 mM from stock in 5% Triton X-100
T3 construct: full-length ORF, His-tagged (pET28b, BamHI/SalI), E. coli Rosetta 2 (DE3), Ni-NTA

purified protein [1] = substrate: CCCCCCCCCCCCCCCC(=O)O; experiment: purified protein; type: biochemical, Solanum lycopersicum; conditions: 0.1 M Tris-HCl pH 7.5, 30 °C, 5 mM ATP, 0.5 mM CoA, 10 mM MgCl2, 2 mM DTT, fatty acid 0-1 mM from stock in 5% Triton X-100
purified protein [2] = substrate: CCCCCCCCCCCCCCCCCC(=O)O; experiment: purified protein; type: biochemical, Solanum lycopersicum; conditions: 0.1 M Tris-HCl pH 7.5, 30 °C, 5 mM ATP, 0.5 mM CoA, 10 mM MgCl2, 2 mM DTT, fatty acid 0-1 mM from stock in 5% Triton X-100

Km (MeLACS): ~166 µM
Km (SlLACS2): ~6 µM
Km (MvLACS): ~40 µM
Molecule: CCCCCCCCCCCCCCCCCC(=O)O [sterate (C18:0)]

Km (MeLACS): ~180 µM
Km (SlLACS2): ~7 µM
Km (MvLACS): ~32 µM
Molecule: CCCCCCCCCCCCCCCC(=O)O [palmitate (C16:0)]

B1: SlLACS1 (Solanum lycopersicum) (protein)
chain: MSMNKFGLKVEEGKEGKNGEPSIGPVYRNPIAKNGFPSADPDLSTAWQLFRSAVEKYPGNRMLGWRDFKDGKWGPYNWKTYKEAYEETLQTGSALRAHGIEPGARIGIYGANCPQWIVAMEACSAHSLICVPLYDTLGSGAVDFIIEHAEIDIVFVQDKKVKELLNAECTHAKRLKLIVCFTLLQQEEKDKAVSMNIKPYSWNEFLNMGKENPSEPSPPQPLDICTIMYTSGTSGEPKGVILTHENMTASVTGVDHFMEEFEDKMTVDDVYISFLPLAHILDRMIEEFFFHRGASVGYFHGNINEIQEDMMELKPTFLAGVPRVYEKVHEGVLKALEELNPFRRHMFHVLYNFKLKWMNLGYKQKYASRLADLLAFRKVKNRLGGRIRLIVSGGAPLSTEVEEFLRVTSCGFVLQGYGLTETCGLATIGHPDEMCMLGTVGPPFVFTEVRLEEVPEMGYDPLADPSRGEICVRGRTTFTGYYKNPELTREAIKDGWFHTGDIGEMMPNGVVKVIDRKKNVIKLSQGEYVALEYLEKVYAIAPIVEDIWVYGDSFKSMLIAVVAPHEGNTKKWADKNGHKGSITELCSLQDLNQYVLLELKSAAERNKLRGFENIKGVILEPQPFEFDKELVTATMKKRRERLLKRYKLEIDDLYKRLNAAAKR
notes: full-length ORF, His-tagged (pET28b, BamHI/SalI), E. coli Rosetta 2 (DE3), Ni-NTA
Km (purified protein [1]): 42.4 ± 3.8 µM
kcat (purified protein [1]): 0.102 ± 0.01 s⁻¹
Km (purified protein [2]): 9.6 ± 1.4 µM
kcat (purified protein [2]): 0.08 ± 0.0033 s⁻¹
